Source: PMC10916402, “Meropenem-ANT3310, a unique β-lactam-β-lactamase inhibitor combination with expanded antibacterial spectrum against Gram-negative pathogens including carbapenem-resistant Acinetobacter baumannii” (Antimicrobial Agents and Chemotherapy, 2024)
≈ marks a conversion by molar mass, not a printed value. Read-outs that look alike come from different tables or passages of the source.

How the values were obtained:
OXA-58 = OXA-58 (Acinetobacter baumannii, UniProt Q2TR58); assay: In vitro SBL inhibition assay (nitrocefin hydrolysis), IC50; format: biochemical, A. baumannii
Sequence of OXA-58 (Q2TR58 19-280): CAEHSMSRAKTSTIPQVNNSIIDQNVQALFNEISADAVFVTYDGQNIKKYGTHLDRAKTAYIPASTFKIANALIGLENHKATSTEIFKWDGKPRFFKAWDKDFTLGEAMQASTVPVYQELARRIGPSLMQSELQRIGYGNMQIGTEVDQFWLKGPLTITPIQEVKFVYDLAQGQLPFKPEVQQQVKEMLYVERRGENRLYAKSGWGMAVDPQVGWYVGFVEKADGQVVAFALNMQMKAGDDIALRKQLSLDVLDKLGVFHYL
Experimental: (§1) Nitrocefin (Sigma-Aldrich, St Louis, MO, USA), a chromogenic cephalosporin antibiotic (λ, 482 nm; εM, 15,000 M^−1.cm^−1), was used as a reporter substrate at 100 µM for KPC-2, OXA-23, and OXA-48, at 200 µM for OXA-24 and OXA-51, and at 50 µM for OXA-58. Enzymes were preincubated in the presence of varying concentrations of each compound (0.006 to 3000 nM, diluted twofold in dimethyl sulfoxide (DMSO) for KPC-2, OXA-23, and OXA-48 assays and 0.51 to 10,000 nM diluted threefold in DMSO for OXA-24, OXA-51, and OXA-58) for 10 min at 30°C. Nitrocefin was then added and its hydrolysis by the uninhibited enzyme fraction was followed at an absorbance wavelength of 482 nm for 10 min at 30°C using Envision UV fluorescence plate reader (Perkin Elmer, Waltham, MA, USA). Hydrolysis rate data were used to determine inhibitory activities, expressed in IC50 values [corresponding to the compound concentration (µM) required to inhibit 50% of enzymatic reaction].

OXA-51 = OXA-51 (Acinetobacter baumannii, UniProt Q5QT35); assay: as above; format: biochemical, A. baumannii; conditions: 10 min preincubation, 30°C, read-out: Enzyme IC50
Sequence of OXA-51 (Q5QT35 entry or part of it): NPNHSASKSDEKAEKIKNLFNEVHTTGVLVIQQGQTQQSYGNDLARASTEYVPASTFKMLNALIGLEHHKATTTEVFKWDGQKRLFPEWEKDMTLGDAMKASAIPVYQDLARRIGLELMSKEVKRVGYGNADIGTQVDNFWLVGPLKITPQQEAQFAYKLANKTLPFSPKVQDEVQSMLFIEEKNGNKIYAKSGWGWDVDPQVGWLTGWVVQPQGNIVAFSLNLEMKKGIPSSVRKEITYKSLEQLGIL
Experimental: as §1

OXA-48 = OXA-48 (Klebsiella pneumoniae, UniProt Q6XEC0); assay: as above; format: biochemical; conditions: 10 min preincubation, 30°C, read-out: Enzyme IC50
Sequence of OXA-48 (Q6XEC0 23-265, looked up, species assumed): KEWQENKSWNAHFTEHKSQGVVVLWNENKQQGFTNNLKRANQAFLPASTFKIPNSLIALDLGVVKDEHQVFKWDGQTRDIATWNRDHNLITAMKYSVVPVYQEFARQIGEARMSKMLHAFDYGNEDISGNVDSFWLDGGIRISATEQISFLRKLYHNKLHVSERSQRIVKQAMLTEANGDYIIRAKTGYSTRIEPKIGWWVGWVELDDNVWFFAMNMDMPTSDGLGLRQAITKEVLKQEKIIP
Experimental: as §1

OXA-23 = OXA-23 (Acinetobacter baumannii, UniProt Q9L4P2); assay: as above; format: biochemical; conditions: 10 min preincubation, 30°C, read-out: Enzyme IC50
Sequence of OXA-23 (Q9L4P2 18-273): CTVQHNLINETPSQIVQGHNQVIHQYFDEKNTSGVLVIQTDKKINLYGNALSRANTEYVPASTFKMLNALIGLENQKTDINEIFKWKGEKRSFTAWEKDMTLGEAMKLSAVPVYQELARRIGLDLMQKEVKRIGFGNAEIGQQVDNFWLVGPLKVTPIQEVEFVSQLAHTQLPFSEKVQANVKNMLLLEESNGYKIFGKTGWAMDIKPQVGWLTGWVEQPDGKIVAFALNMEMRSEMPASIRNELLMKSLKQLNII
Experimental: as §1

OXA-24/40 = OXA-24/40 (Acinetobacter baumannii, UniProt Q8RLA6); assay: as above; format: biochemical; conditions: 10 min preincubation, 30°C, read-out: Enzyme IC50
Sequence of OXA-24/40 (Q8RLA6 22-275): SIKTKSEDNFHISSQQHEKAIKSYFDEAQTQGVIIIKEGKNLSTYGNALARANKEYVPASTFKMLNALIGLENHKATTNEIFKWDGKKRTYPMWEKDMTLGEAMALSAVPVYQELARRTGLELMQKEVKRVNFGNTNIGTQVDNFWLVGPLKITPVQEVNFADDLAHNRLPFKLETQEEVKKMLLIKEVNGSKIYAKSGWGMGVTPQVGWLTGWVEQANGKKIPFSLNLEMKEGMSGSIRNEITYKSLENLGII
Experimental: as §1

KPC-2 = KPC-2 (Klebsiella pneumoniae, UniProt Q9F663); assay: as above; format: biochemical
Sequence of KPC-2 (Q9F663 25-293 limits assumed): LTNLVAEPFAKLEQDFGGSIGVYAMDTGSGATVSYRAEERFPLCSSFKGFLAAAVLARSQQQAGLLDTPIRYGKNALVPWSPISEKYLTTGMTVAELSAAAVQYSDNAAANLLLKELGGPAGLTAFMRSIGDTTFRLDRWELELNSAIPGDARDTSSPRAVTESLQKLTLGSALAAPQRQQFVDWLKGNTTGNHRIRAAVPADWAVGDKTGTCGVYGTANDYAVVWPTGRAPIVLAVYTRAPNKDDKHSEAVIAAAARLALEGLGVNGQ
Experimental: as §1

[1] = tested on: carbapenem-resistant Acinetobacter baumannii (CRAB) clinical isolates; assay: Broth microdilution MIC, CRAB isolates; format: cell-based; conditions: for Number of isolates inhibited at MIC of 0.25 µg/mL / Number of isolates inhibited at MIC of 0.5 µg/mL / Number of isolates inhibited at MIC of 1 µg/mL / Number of isolates inhibited at MIC of 2 µg/mL / Number of isolates inhibited at MIC of 4 µg/mL / Number of isolates inhibited at MIC of 8 µg/mL / Number of isolates inhibited at MIC of 16 µg/mL / Number of isolates inhibited at MIC of 32 µg/mL / Number of isolates inhibited at MIC of >32 µg/mL / Number of isolates inhibited at MIC of ≤0.125 µg/mL / MIC50 / MIC90: CRAB (MEM MICs >4 µg/mL); for CLSI % Res / CLSI % Sus: CRAB, CLSI BP; for CLSI % Res: for MEM-ANT3310 % at ≥16 µg/mL; for CLSI % Sus: for MEM-ANT3310 % inhibited at ≤8 µg/mL; for MIC90: read-out: MIC90
Experimental: (§2) All isolates were randomly selected from the frozen culture collection of IHMA collected in 2018 and 2019. Matrix-assisted laser desorption ionization-time of flight mass spectrometry was used to confirm the identity of the organisms tested (Bruker Daltonics, Bremen, Germany).
(§3) MICs for all antimicrobial agents were determined at IHMA by broth microdilution in accordance with both CLSI ([17]) and EUCAST ([18]) guidelines. Microtiter panels were prepared by IHMA and stored at −70°C in cation-adjusted Mueller Hinton broth (CAMHB) (Becton Dickinson). Iron-depleted CAMHB was used to test cefiderocol. Panels containing ANT3310 were prepared fresh on the day of testing. […] MIC values corresponded to the first well with no visible growth. Quality control testing was performed on each day of testing with E. coli ATCC 25922, P. aeruginosa ATCC 27853, K. pneumoniae ATCC 700603 and BAA 1705, and A. baumannii NCTC 13304. MICs were interpreted using 2023 CLSI ([17]) and EUCAST ([18]) BPs.

[2] = tested on: A. baumannii clinical isolates; assay: Broth microdilution MIC, A. baumannii clinical isolates; format: cell-based, Acinetobacter baumannii; conditions: for CLSI % Res: for MEM-ANT3310 % at ≥16 µg/mL; for MIC90: read-out: MIC90
Experimental: as §2, §3

[3] = tested on: OXA-producing Enterobacterales (OXA-CRE); assay: organism not typed; format: cell-based
Experimental: as §2, §3

[4] = tested on: KPC-producing Enterobacterales (KPC-CRE); assay: organism not typed; format: cell-based
Experimental: as §2, §3

[5] = tested on: P. aeruginosa clinical isolates; assay: Broth microdilution MIC, P. aeruginosa clinical isolates; format: cell-based, Pseudomonas aeruginosa; conditions: 502 P. aeruginosa, 2019 global collection
Experimental: as §2, §3

[6] = 2018 Global collection, All A. baumannii, N 500
[7] = 2019 Global collection, All A. baumannii, N 405
[8] = 252 OXA-producing Enterobacterales, EUCAST BP
[9] = 180 KPC-producing Enterobacterales, EUCAST BP

Compound: NC(=O)[C@@H]1CC[C@@H]2CN1C(=O)N2OS(=O)(=O)O [Avi, avibactam]
- IC50 (OXA-58): > 10000 nM
- IC50 (OXA-51): > 10000 nM

Compound: CC1=C[C@@H]2CN(C(=O)N2OS(=O)(=O)O)[C@@H]1C(N)=O [Dur, durlobactam]
- IC50 (OXA-58): 11 nM
- IC50 (OXA-51): 4300 nM
- IC50 (OXA-48): 3.4 nM
- IC50 (OXA-23): 347 nM
- IC50 (OXA-24/40): 208 nM
- IC50 (KPC-2): 5.3 nM

Compound: CC(C)(O/N=C(\C(=O)N[C@@H]1C(=O)N2C(C(=O)[O-])=C(C[N+]3(CCNC(=O)c4ccc(O)c(O)c4Cl)CCCC3)CS[C@H]12)c1csc(N)n1)C(=O)O [Cefiderocol, cefiderocol]
- Number of isolates inhibited at MIC of 0.25 µg/mL ([1]; 2018 Global collection, N 363): 63
- Number of isolates inhibited at MIC of 0.5 µg/mL ([1]; 2018 Global collection, N 363): 99
- Number of isolates inhibited at MIC of 1 µg/mL ([1]; 2018 Global collection, N 363): 72
- Number of isolates inhibited at MIC of 2 µg/mL ([1]; 2018 Global collection, N 363): 49
- Number of isolates inhibited at MIC of 4 µg/mL ([1]; 2018 Global collection, N 363): 21
- Number of isolates inhibited at MIC of 8 µg/mL ([1]; 2018 Global collection, N 363): 3
- Number of isolates inhibited at MIC of 16 µg/mL ([1]; 2018 Global collection, N 363): 3
- Number of isolates inhibited at MIC of 32 µg/mL ([1]; 2018 Global collection, N 363): 2
- Number of isolates inhibited at MIC of >32 µg/mL ([1]; 2018 Global collection, N 363): 17
- Number of isolates inhibited at MIC of ≤0.125 µg/mL ([1]; 2018 Global collection, N 363): 34
- CLSI % Res ([1]; 2018 Global collection, N 363): 12.7%
- CLSI % Sus ([1]; 2018 Global collection, N 363): 73.8%
- MIC50 ([1]; 2019 Global collection, N 340): 0.5 µg/mL (≈ 0.665 µM)
- Number of isolates inhibited at MIC of 0.25 µg/mL ([1]; 2019 Global collection, N 340): 64
- Number of isolates inhibited at MIC of 0.5 µg/mL ([1]; 2019 Global collection, N 340): 93
- Number of isolates inhibited at MIC of 1 µg/mL ([1]; 2019 Global collection, N 340): 61
- Number of isolates inhibited at MIC of 2 µg/mL ([1]; 2019 Global collection, N 340): 34
- Number of isolates inhibited at MIC of 4 µg/mL ([1]; 2019 Global collection, N 340): 19
- Number of isolates inhibited at MIC of 8 µg/mL ([1]; 2019 Global collection, N 340): 9
- Number of isolates inhibited at MIC of 16 µg/mL ([1]; 2019 Global collection, N 340): 8
- Number of isolates inhibited at MIC of 32 µg/mL ([1]; 2019 Global collection, N 340): 2
- Number of isolates inhibited at MIC of >32 µg/mL ([1]; 2019 Global collection, N 340): 18
- Number of isolates inhibited at MIC of ≤0.125 µg/mL ([1]; 2019 Global collection, N 340): 32
- CLSI % Res ([1]; 2019 Global collection, N 340): 16.5%
- CLSI % Sus ([1]; 2019 Global collection, N 340): 73.5%
- MIC50 ([1]; Acinetobacter baumannii, 2018 Global collection, N 363, read-out: MIC50): 0.5 µg/mL (≈ 0.665 µM)
- MIC90 ([1]; Acinetobacter baumannii, 2018 Global collection, N 363): 4 µg/mL (≈ 5.32 µM)
- MIC90 ([1]; Acinetobacter baumannii, 2019 Global collection, N 340): 8 µg/mL (≈ 10.6 µM)
- Number of isolates inhibited at MIC of 0.25 µg/mL [2, 6]: 83
- Number of isolates inhibited at MIC of 0.5 µg/mL [2, 6]: 111
- Number of isolates inhibited at MIC of 1 µg/mL [2, 6]: 78
- Number of isolates inhibited at MIC of 2 µg/mL [2, 6]: 52
- Number of isolates inhibited at MIC of 4 µg/mL [2, 6]: 24
- Number of isolates inhibited at MIC of 8 µg/mL [2, 6]: 3
- Number of isolates inhibited at MIC of 16 µg/mL [2, 6]: 3
- Number of isolates inhibited at MIC of 32 µg/mL [2, 6]: 2
- Number of isolates inhibited at MIC of >32 µg/mL [2, 6]: 21
- Number of isolates inhibited at MIC of ≤0.125 µg/mL [2, 6]: 123
- CLSI % Res ([2]; 2018 Global collection, All A. baumannii, N 500, CLSI BP): 10.6%
- MIC50 [2, 7]: 0.5 µg/mL (≈ 0.665 µM)
- Number of isolates inhibited at MIC of 0.25 µg/mL [2, 7]: 72
- Number of isolates inhibited at MIC of 0.5 µg/mL [2, 7]: 99
- Number of isolates inhibited at MIC of 1 µg/mL [2, 7]: 64
- Number of isolates inhibited at MIC of 2 µg/mL [2, 7]: 35
- Number of isolates inhibited at MIC of 4 µg/mL [2, 7]: 19
- Number of isolates inhibited at MIC of 8 µg/mL [2, 7]: 12
- Number of isolates inhibited at MIC of 16 µg/mL [2, 7]: 8
- Number of isolates inhibited at MIC of 32 µg/mL [2, 7]: 2
- Number of isolates inhibited at MIC of >32 µg/mL [2, 7]: 18
- Number of isolates inhibited at MIC of ≤0.125 µg/mL [2, 7]: 76
- CLSI % Res ([2]; 2019 Global collection, All A. baumannii, N 405, CLSI BP): 14.6%
- CLSI % Sus ([2]; 2019 Global collection, All A. baumannii, N 405, CLSI BP, for MEM-ANT3310 % inhibited at ≤8 µg/mL): 76.8%
- MIC50 ([2]; Acinetobacter baumannii, 2018 Global collection, All A. baumannii, N 500, read-out: MIC50): 0.5 µg/mL (≈ 0.665 µM)
- MIC90 ([2]; Acinetobacter baumannii, 2018 Global collection, All A. baumannii, N 500): 4 µg/mL (≈ 5.32 µM)
- MIC90 ([2]; Acinetobacter baumannii, 2019 Global collection, All A. baumannii, N 405): 4 µg/mL (≈ 5.32 µM)
- MIC90 ([2]; Acinetobacter baumannii, A. baumannii, one or both of the 2018/2019 collections): 4 µg/mL (≈ 5.32 µM)
- MIC50 [3]: 1 µg/mL (≈ 1.33 µM)
- MIC90 [3]: 4 µg/mL (≈ 5.32 µM)
- CLSI % Res ([3]; 252 OXA-producing Enterobacterales, CLSI BP, for MEM-ANT3310 % at ≥16 µg/mL): 0.4%
- CLSI % Sus ([3]; 252 OXA-producing Enterobacterales, CLSI BP, for MEM-ANT3310 % inhibited at ≤8 µg/mL): 98.8%
- EUCAST % Res [3, 8]: 21.8%
- EUCAST % Sus [3, 8]: 78.2%
- MIC50 [4]: 1 µg/mL (≈ 1.33 µM)
- MIC90 [4]: 4 µg/mL (≈ 5.32 µM)
- CLSI % Res ([4]; 180 KPC-producing Enterobacterales, CLSI BP, for MEM-ANT3310 % at ≥16 µg/mL): 0%
- CLSI % Sus ([4]; 180 KPC-producing Enterobacterales, CLSI BP, for MEM-ANT3310 % inhibited at ≤8 µg/mL): 100%
- EUCAST % Res [4, 9]: 27.2%
- EUCAST % Sus [4, 9]: 72.8%
- Number of isolates inhibited at MIC of 0.25 µg/mL [5]: 125
- Number of isolates inhibited at MIC of 0.5 µg/mL [5]: 92
- Number of isolates inhibited at MIC of 1 µg/mL [5]: 33
- Number of isolates inhibited at MIC of 2 µg/mL [5]: 16
- Number of isolates inhibited at MIC of 4 µg/mL [5]: 7
- Number of isolates inhibited at MIC of 8 µg/mL [5]: 1
- Number of isolates inhibited at MIC of 32 µg/mL [5]: 1
- Number of isolates inhibited at MIC of ≤0.125 µg/mL [5]: 227
- MIC50 ([5]; Pseudomonas aeruginosa, read-out: MIC50): 0.25 µg/mL (≈ 0.332 µM)
- MIC90 ([5]; Pseudomonas aeruginosa, read-out: MIC90): 1 µg/mL (≈ 1.33 µM)
